Measured values as given in patent US7514251B2, “O-methyltransferases of tetrahydrobenzylisoquinoline alkaloid biosynthesis in Papaver somniferum” (priority 2003, dated 2009).
Read-outs that look alike come from different tables or passages of the source. Marks after values point to notes of the source that are not given here.

Tests used:
[1] = target: T1, PSOMT1 ((R,S)-reticuline 7-O-methyltransferase) (Papaver somniferum, UniProt Q6WUC2); format: biochemical; details: for methylated by PSOMT1 (radioassay, in words): one of forty substrates tested; for Km: read-out: Km Substrate
T1 construct: The full-length cDNA generated by RT-PCR was ligated into pFastBac HTa; His6 (N); made in house; host or cells: Spodoptera frugiperda Sf9 (baculovirus, pFastBac HTa)
T1 sequence (Q6WUC2 whole entry): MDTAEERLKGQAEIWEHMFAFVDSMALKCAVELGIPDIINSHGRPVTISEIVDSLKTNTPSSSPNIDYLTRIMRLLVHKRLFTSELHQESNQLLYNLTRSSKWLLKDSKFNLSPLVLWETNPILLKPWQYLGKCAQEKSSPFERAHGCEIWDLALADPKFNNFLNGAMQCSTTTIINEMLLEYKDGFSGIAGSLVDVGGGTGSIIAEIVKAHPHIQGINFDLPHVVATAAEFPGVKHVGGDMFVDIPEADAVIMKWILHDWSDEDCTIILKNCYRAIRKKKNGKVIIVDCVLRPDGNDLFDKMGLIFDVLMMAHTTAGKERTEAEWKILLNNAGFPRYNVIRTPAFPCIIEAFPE
Text: (§1) Heterologous Expression and Enzyme Purification—The full-length cDNA generated by RT-PCR was ligated into pFastBac HTa that had been digested with restriction endonucleases BamHI and NotI. The recombinant plasmid was transposed into baculovirus DNA in the Escherichia coli strain DH10BAC (Life Technologies) and then transfected into Spodoptera frugiperda Sf9 cells according to the manufacturer's instructions. The insect cells were propagated and the recombinant virus was amplified according to (16,17). INSECT-XPRESS serum-free medium (Bio Whittaker) was used in the enzyme expression experiments.
(§2) After infection of 20 ml suspension grown insect cells had proceded for 3-4 days at 28° C. and 130 rpm, the cells were removed by centrifugation under sterile conditions at 900× g for 5 min at 4° C. All subsequent steps were performed at 4° C. The pellet was discarded and to the medium was added 0.73 g NaCl, 2.5 ml glycerol and 50 μl […]-mercaptoethanol. The pH was adjusted to 7.0 with 1.0 M NaOH. The His-tagged O-methyltransferase was then purified by affinity chromatography using a cobalt resin (Talon, Clontech) according to the manufacturer's instructions.
(§3) Enzyme assay and product identification: The O-methylation reactions catalysed by the two O-methyltransferases were assayed at least two times in duplicate according to Rüffer et al. (1983a; 1983b) as follows. Substrate (25 nmol), [methyl-3H]-AdoMet (20,000 dpm, 0.4 fmol), AdoMet (10 nmol) Tris/HC1 buffer pH 8.0 (10 μmol), ascorbate (5 μmol) and 5-10 μg of enzyme were incubated in a total volume of 150 μl at 35° C. for 5-60 min. The enzymic reaction was terminated by addition of 200 μl ethylacetate. The organic phase ([…]) was added to 3 ml high flash point liquid scintillation cocktail (Packard) and the radioactivity quantified with a Beckman LS6000TA liquid scintillation counter.
(§4) General Methods—Total RNA was isolated and RNA gels were run and blotted as described previously (20). Genomic DNA was isolated and DNA gels were run and blotted according to (21). cDNA clones were labeled by PCR labeling with [[…]-^32P]dATP. Hybridized RNA on RNA gel blots and DNA on DNA gel blots were visualized with a STORM phosphor imager (Molecular Dynamics). The entire nucleotide sequence on both DNA strands of the full-length clone was determined by dideoxy cycle sequencing using internal DNA sequences for the design of deoxyoligonucleotides as sequencing primers. Saturation curves and double reciprocal plots were constructed with the Fig. P program Version 2.7 (Biosoft, Cambridge, UK). The influence of pH on enzyme activity was monitored in sodium citrate (pH 4-6), sodium phosphate (pH 6-7.0) and Tris-HCl (pH 7.0-9), glycine/NaOH (pH 9-10.5) buffered solutions.

[2] = target: T2, PSOMT2 ((R,S)-norcoclaurine 6-O-methyltransferase) (Papaver somniferum, UniProt Q6WUC1); test: Radioassay of recombinant PSOMT2 with [methyl-3H]-AdoMet (substrate specificity, kinetics, pH and temperature optima); format: biochemical; details: for Substrate specificity, relative activity of PSOMT2: 100% activity = 2.0 pmoles/sec/mg total protein, radioassay
T2 construct: The full-length cDNA generated by RT-PCR was ligated into pFastBac HTa; His6 (N); made in house; host or cells: Spodoptera frugiperda Sf9 (baculovirus, pFastBac HTa)
T2 sequence (Q6WUC1 1-346): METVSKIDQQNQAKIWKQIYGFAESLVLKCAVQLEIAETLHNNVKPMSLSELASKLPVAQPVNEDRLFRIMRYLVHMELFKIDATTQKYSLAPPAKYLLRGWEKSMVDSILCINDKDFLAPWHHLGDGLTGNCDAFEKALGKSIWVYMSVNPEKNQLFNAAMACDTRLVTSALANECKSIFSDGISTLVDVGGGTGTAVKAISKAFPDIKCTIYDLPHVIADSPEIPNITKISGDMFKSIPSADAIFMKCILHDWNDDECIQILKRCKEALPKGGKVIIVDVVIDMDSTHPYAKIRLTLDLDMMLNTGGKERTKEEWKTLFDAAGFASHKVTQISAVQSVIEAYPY
Text: as §1, §2, §3, §4

[3] = 100% activity = 1.5 pmoles/sec/mg total protein, radioassay

| SMILES | Substrate specificity, relative activity of PSOMT1 [1, 3] [%] | Substrate specificity, relative activity of PSOMT2 [2] | other results |
| --- | --- | --- | --- |
| COc1ccc(CC2NCCc3cc(OC)c(O)cc32)cc1 (racemic) [(R,S)-4′-O-methylcoclaurine] | 0 | 0% | – |
| COc1cc2c(cc1O)C(Cc1ccc(O)c(O)c1)N(C)CC2 (racemic) [(R,S)-6-O-Methyllaudanosoline] | 0 | 0% | – |
| COc1cc2c(cc1O)[C@H](Cc1ccc(OC)c(OC)c1)N(C)CC2 (racemic) [(R,S)-Codamine] | 0 | 0% | – |
| COc1cc2c(cc1O)CCNC2Cc1ccc(O)cc1 (racemic) [(R,S)-Isococlaurine] | 0 | 0% | – |
| COc1ccc(CC2c3cc(OC)c(OC)cc3CCN2C)cc1O (racemic) [(R,S)-Laudanidine] | 0 | 0% | – |
| COc1cc2c(cc1O)C(Cc1ccc(O)cc1)N(C)CC2 (racemic) [(R,S)-N-Methylcoclaurine] | 0 | 0% | – |
| Oc1ccc(CC2NCCc3cc(O)c(O)cc32)cc1 (racemic) [(R,S)-Norcoclaurine] | 0 | 100^a % | Vmax Substrate ([2]; PSOMT2): 5 pmol/s; kcat Substrate ([2]; PSOMT2): 0.08 s⁻¹; Km ([2]; PSOMT2, co-substrate AdoMet with the named substrate, read-out: Km AdoMet): 100 µM; Km ([2]; PSOMT2, read-out: Km Substrate): 10 µM; pH range of methylation ([2]; PSOMT2, wide pH range): 6.0-9.0; methylated by PSOMT2 (radioassay, in words) ([2]; one of forty substrates tested): methylating |
| COc1cc(CC2NCCc3cc(OC)c(O)cc32)ccc1O (racemic) [(R,S)-Nororientaline] | 0 | 0% | – |
| COc1ccc2c(c1)CCN[C@@H]2Cc1ccc(OC)c(O)c1 [(R)-7-Dehydroxy-norreticuline] | 0 | 0% | – |
| COc1ccc(C[C@H]2NCCc3cc(OC)c(O)cc32)cc1O [(R)-Norreticuline] | 0 | 0% | – |
| COc1ccc(C[C@H]2c3cc(O)c(O)cc3CCN2C)cc1O [(S)-4′-O-Methyllaudanosoline] | 0 | 0% | – |
| COc1ccc2c(c1)CCN[C@H]2Cc1ccc(OC)c(O)c1 [(S)-7-Dehydroxy-norreticuline] | 0 | 0% | – |
| COc1cc2c(cc1O)[C@H](Cc1ccc(O)cc1)NCC2 [(S)-Coclaurine] | 0 | 0% | – |
| COc1cc2c(cc1O)C[C@H]1c3cc(O)c(OC)cc3CCN1C2 [(S)-Coreximine] | 0 | 0% | – |
| COc1ccc(C[C@@H]2NCCc3cc(OC)c(O)cc32)cc1O [(S)-Norreticuline] | 0 | 0% | – |
| COc1cc2c(cc1O)[C@@H]1Cc3ccc(OC)c(O)c3CN1CC2 [(S)-Scoulerine] | 0 | 0% | – |
| O=C(O)/C=C/c1ccc(O)c(O)c1 [Caffeic acid] | 0 | 0% | – |
| Oc1ccccc1O [Catechol] | 0 | 0% | – |
| NCCc1ccc(O)c(O)c1 [Dopamine] | – | 0% | Substrate specificity, relative activity of PSOMT1 [1]: 0% |
| O=c1ccc2cc(O)c(O)cc2o1 [Esculetin] | 0 | 0% | – |
| COc1ccccc1O [Guaiacol] | 242 | 0% | Vmax Substrate ([1]; PSOMT1): 6 pmol/s; kcat Substrate ([1]; PSOMT1): 0.1 s⁻¹; kcat/Km ratio relative to the values determined for reticuline ([1]; PSOMT1): 135%; pH optimum of methylation ([1]; PSOMT1): 8.0; ratio kcat/Km ([1]; PSOMT1): 5870 M⁻¹ s⁻¹; temperature optimum ([1]; PSOMT1): 37 °C; methylated by PSOMT1 (radioassay, in words) [1]: methylates; Km ([1]; PSOMT1): 17 µM |
| COc1ccc(C(=O)O)cc1O [Isovanillic acid] | 40 | 0% | Vmax Substrate ([1]; PSOMT1): 1 pmol/s; kcat Substrate ([1]; PSOMT1): 0.02 s⁻¹; pH optimum of methylation ([1]; PSOMT1): 7.5; ratio kcat/Km ([1]; PSOMT1): 1210 M⁻¹ s⁻¹; methylated by PSOMT1 (radioassay, in words) [1]: methylates; Km ([1]; PSOMT1): 14 µM |
| O=c1c(O)c(-c2ccc(O)cc2O)oc2cc(O)cc(O)c12 [Morin] | 0 | 0% | – |
| CN1CC[C@]23c4c5ccc(O)c4O[C@H]2[C@@H](O)C=C[C@H]3[C@H]1C5 [Morphine] | 0 | 0% | – |
| O=C(O)c1ccc(O)c(O)c1 [Protocatechuic acid] | 0 | 0% | – |
| COc1c(-c2ccc(O)c(O)c2)oc2cc(O)cc(O)c2c1=O [Quercetin-3-methylether] | 0 | 0% | – |
| COc1cc(O)c2c(=O)c(O)c(-c3ccc(O)c(O)c3)oc2c1 [Quercetin-7-methylether] | 0 | 0% | – |
| O=c1c(O)c(-c2ccc(O)c(O)c2)oc2cc(O)cc(O)c12 [Quercetin] | 0 | 0% | – |
| COC1=C[C@]23CCN(C)[C@H](Cc4ccc(OC)c(O)c42)C3=CC1=O [Salutaridine] | 0 | 0% | – |
| COc1cc(C(=O)O)ccc1O [Vanillic acid] | 0 | 0% | – |
